Results on 3 compounds are retold here after patent US20220265845A1, “AMINOTHIOLESTER COMPOUNDS AND USES THEREOF” (ADVANCED BIODESIGN, priority 2019, published 2022).

Holding throughout (type): biochemical
Test [1] has as its target T1, Human recombinant ALDH3A1 (Homo sapiens, UniProt P30838).
T1 sequence (P30838 1-453): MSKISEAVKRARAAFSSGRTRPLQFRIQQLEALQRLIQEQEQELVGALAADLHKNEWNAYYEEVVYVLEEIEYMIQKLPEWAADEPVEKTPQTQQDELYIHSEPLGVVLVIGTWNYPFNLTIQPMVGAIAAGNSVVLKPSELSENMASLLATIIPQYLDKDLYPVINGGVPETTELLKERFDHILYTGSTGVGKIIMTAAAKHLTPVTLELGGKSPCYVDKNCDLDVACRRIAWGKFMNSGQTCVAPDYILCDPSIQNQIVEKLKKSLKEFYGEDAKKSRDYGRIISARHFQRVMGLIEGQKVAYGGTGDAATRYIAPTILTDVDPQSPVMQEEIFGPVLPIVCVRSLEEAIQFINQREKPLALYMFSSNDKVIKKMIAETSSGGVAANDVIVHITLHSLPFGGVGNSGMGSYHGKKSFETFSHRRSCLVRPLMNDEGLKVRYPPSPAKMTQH
The test is described as follows: Enzymatic assay with human recombinant ALDH3A1 (NADP+, 4-NBA), IC50. As to conditions: substrate 4-Nitrobenzaldehyde, 37° C. How it is done: For ALDH3A1 (1 mg/mL), 10 μL of enzyme was added into a reaction buffer containing 50 mM Tris, 5 mM DTT, pH 8, plus 40 mM Nicotinamide adenine dinucleotide phosphate (oxidized form, NADP^+) and 4-Nitrobenzaldehyde (4-NBA) (Sigma-.Aldrich). Internal standards were prepared with Nicotinamide adenine dinucleotide phosphate reduced form (NADPH, 5 μM, Sigma-Aldrich) in Reaction Buffer (50 mM Tris, 5 mM DTT, pH 8).
(§1) Time-dependent inhibition assays were performed for 0-2-5-10-15-20-30-45-60 min at 37° C. in 1 mL-quartz cuvette. The formation of NADH was monitored, reading samples at excitation wavelength=340 nm/emission wavelength=460 nm (fluorescence) for at least 600 sec using Cary Eclipse Varian fluorimeter.
(§2) Negative control consisted in the same reactions except that enzyme was not added (enzyme blank). To determine the slope for enzyme blank and calculate product concentration (Unit of fluorescence) the following formulae was used: […]
(§3) where Cst is the standard NADH concentration, Fst is the standard fluorescence and dF/dt is the slope of the time dependent fluorescence (S. Sotobodowska et al, 2012). The specific activity of the enzymes (μmol/min·mg-U/mg) in the absence of presence of inhibitors was calculated as follows: […]

In test [2] the target is T2, Human recombinant ALDH1A1 (Homo sapiens, UniProt P00352).
T2 construct: purchased Creative BioMart, NY, USA
T2 sequence (P00352 1-501): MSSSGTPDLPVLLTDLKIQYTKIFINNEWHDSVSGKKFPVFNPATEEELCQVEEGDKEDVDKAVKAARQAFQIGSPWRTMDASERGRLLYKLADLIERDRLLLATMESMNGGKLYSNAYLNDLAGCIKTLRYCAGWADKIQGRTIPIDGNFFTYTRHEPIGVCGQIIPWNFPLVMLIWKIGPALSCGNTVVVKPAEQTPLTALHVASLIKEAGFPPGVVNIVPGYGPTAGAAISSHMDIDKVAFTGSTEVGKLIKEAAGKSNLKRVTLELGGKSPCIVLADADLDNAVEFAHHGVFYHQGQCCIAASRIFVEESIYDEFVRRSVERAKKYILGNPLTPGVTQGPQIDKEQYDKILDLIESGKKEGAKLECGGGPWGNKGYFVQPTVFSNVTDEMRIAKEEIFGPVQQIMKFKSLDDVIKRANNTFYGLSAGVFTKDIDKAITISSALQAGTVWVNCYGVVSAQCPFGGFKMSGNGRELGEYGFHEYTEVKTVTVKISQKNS
Briefly: Enzymatic assay with human recombinant ALDH (NADH fluorescence), IC50. As to conditions: substrate Hexanal, NAD+, 37° C. How it is done:
(§4) Human recombinant ALDH1A1, ALDH1 A2, ALDH1A3, ALDH2 (Creative BioMart, NY, USA) were prepared at 1 mg/mL. The enzymatic reactions were performed using saturating concentrations of substrate. To test the enzymatic activity of the enzymes, 10 μL of enzyme was added into a reaction buffer containing 50 mM HEPES pH 7.2, 30 mM MgCl2, plus 20 mM NAD^+ cofactor and 2 mM Hexanal (Sigma-Aldrich, St. Louis, Mo., USA) in the presence or absence of the different tested compounds. Internal standards were prepared with Nicotinamide adenine dinucleotide reduce form (NADH, 500 μM, Sigma-Aldrich) in Reaction Buffer (50 mM HEPES pH 7.2, 30 mM MgCl2).
as §1, §2, §3

The next test deals with T3, Human recombinant ALDH2 (Homo sapiens, UniProt P05091).
T3 construct: purchased Creative BioMart, NY, USA
T3 sequence (P05091 18-517): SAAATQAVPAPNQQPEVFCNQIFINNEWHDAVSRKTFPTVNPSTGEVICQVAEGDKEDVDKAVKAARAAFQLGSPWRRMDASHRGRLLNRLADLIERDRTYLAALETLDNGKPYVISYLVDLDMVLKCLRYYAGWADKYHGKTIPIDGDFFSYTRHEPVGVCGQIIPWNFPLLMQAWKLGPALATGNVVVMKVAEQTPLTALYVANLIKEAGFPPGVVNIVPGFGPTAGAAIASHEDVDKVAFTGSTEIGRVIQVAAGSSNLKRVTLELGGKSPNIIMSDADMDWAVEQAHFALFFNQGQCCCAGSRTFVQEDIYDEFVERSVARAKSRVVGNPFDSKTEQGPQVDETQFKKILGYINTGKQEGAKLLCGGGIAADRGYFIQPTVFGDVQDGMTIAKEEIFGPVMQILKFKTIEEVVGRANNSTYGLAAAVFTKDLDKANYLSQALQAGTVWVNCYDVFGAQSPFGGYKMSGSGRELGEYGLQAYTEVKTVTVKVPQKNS
The test is described as above. Conditions: substrate Hexanal, NAD+, 37° C. How it is done:
as §4, §1, §2, §3

Test [3] has as its target T4, Human recombinant ALDH1A3 (Homo sapiens, UniProt P47895).
T4 construct: purchased Creative BioMart, NY, USA
T4 sequence (P47895 1-512): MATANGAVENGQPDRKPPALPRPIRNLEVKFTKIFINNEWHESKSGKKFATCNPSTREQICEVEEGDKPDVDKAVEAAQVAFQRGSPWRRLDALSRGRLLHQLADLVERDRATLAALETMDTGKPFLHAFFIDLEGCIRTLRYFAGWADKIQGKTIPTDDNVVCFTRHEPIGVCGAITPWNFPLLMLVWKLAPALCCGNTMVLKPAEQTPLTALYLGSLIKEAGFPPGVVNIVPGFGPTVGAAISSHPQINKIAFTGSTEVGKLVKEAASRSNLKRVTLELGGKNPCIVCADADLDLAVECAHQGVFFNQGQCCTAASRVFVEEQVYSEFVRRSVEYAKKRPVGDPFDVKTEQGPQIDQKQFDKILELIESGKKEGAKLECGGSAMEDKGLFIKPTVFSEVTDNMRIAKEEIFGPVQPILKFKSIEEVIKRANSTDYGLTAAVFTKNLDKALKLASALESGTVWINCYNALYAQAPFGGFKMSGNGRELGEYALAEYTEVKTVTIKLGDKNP
Described as above. As to conditions: substrate Hexanal, NAD+, 37° C. How it is done: as §4, §1, §2, §3

As to `CSC(=O)C#CC(C)(C)N(C)CCOCc1ccccc1` [Example 3, S-methyl 4-[2-benzyloxyethyl(methyl)amino]-4-methyl-pent-2-ynethioate], the IC50 – broadly, the concentration needed to halve the response being measured – in test [1] is 242 ± 11 µM; in test [2] it was 3.8 ± 1.1 µM; on Human recombinant ALDH2, 3.1 ± 0.8 µM; in test [3] it was 3.4 ± 0.1 µM.

With `CSC(=O)C#CC(C)(C)N(C)CCOCc1ccc(C)c(C)c1` [Example 5, S-methyl 4-[2-[(3,4-dimethylphenyl)methoxy]ethyl-methyl-amino]-4-methyl-pent-2-ynethioate], the IC50 is 143 ± 2 µM in test [1], 4.3 ± 0.4 µM in test [2], 12 ± 3 µM on Human recombinant ALDH2 and 4.8 ± 0.1 µM in test [3].

Take `CSC(=O)C#CC(C)(C)N(C)C` [DIMATE, S-methyl 4-(dimethylamino)-4-methylpent-2-ynethioate, reference compound]: the IC50 in test [1] was determined as 303 ± 46 µM; in test [2], 37 ± 5 µM; at Human recombinant ALDH2, 72 ± 9 µM; in test [3] it was 20 ± 2 µM.
